US4632925A, “N-substituted diphenylpiperidines and antiobesity use thereof” (Hoffmann-La Roche Inc., priority 1985, dated 1986)
Counter-ions that a name gives are not always drawn.

Tests used:
[1] = Glucose clearance: acute in vivo model; parameters: species or system Sprague-Dawley rats; details: Rattus norvegicus, po, 0.5 h; 100 mg/kg intragastric, 30 min before i.p. glucose 1 g/kg; circulating glucose at 30 min; >100% indicates activity
Description: GLUCOSE CLEARANCE: ACUTE IN VIVO MODEL
The rationale for this test is that compounds which suppress insulin secretion should increase circulating glucose levels above those observed in controls following the administration of a high glucose load. Sprague-Dawley rats which range in weight from 150 to 180 grams after an overnight fast of 16 or 18 hours are given the test compound (100 mg/kg body weight) by intragastric administration 30 minutes before the intraperitoneal administration of glucose (1 g/kg body weight). Circulating glucose levels are determined immediately before glucose administration and 30, 60 and 90 minutes after glucose administration. Active compounds increase circulating glucose levels compared to controls. Since glucose levels peak at 30 minutes following glucose administration, the difference in circulating glucose levels between controls and treated rats at 30 minutes is used as an index of activity. The data are expressed as percent of control.

[2] = test system: isolated perfused rat pancreas (insulin secretion); test: Insulin-secretory activity in the isolated perfused rat pancreas; parameters: species or system rat (female Charles River); details: 16.7 mM glucose, index > 1 indicates suppression of insulin secretion
Description: DETERMINATION OF INSULIN-SECRETORY ACTIVITY IN THE ISOLATED PERFUSED RAT PANCREAS
Pancreases were obtained from young adult female Charles River rats weighing from 200-300 g. The animals were anesthesized with sodium pentobarbitol (45 mg/kg), injected intraperitoneally, and the pancreas with its intact vasculature was removed and connected to an extracorporeal perfusion apparatus.
The basic perfusion solution contained: 133 mM NaCl, 4.4 mM KCl, 2.5 mM MgSO4, 2.4 mM Ca gluconate, 1.5 mM KH2 PO4, 29.4 mM HaHCO3, 4% dextran and 0.2% bovine serum albumin and glucose as discussed below. The perfusion flow rate was kept constant at 4 ml/min. After a 15-20 minute equilibration period, the experimental protocol was begun. The pancreatic effluent was collected in either one or four-minute fractions.
The perfusion was run in the following sequence for each test compounds:
30 min 16.7 mM glucose--internal control
30 min 16.7 mM glucose and test compound
10 min 16.7 mM glucose--to check pancreas viability
The perfusion for the nontreated pancreas preparation was run as above, except that the test compound was omitted and replaced with perfusion solution.
Test compounds were dissolved in 90% ethanol or dimethylsulfoxide to a concentration of 25 mM and then diluted in the perfusion buffer to the desired concentration. The perfusion effluent was collected in one or four minute fractions--the samples were checked immediately, aliquoted for submission to radioimmunoassay and stored at -20° C. until the time of assay. The radioimmunoassay of insulin was carried out by a back-titration method using a pure rat insulin standard.
To assess the inhibitory activity of the test compounds, an inhibition index was calculated. The inhibition index is derived by comparing the insulin secretion response from treated versus nontreated pancreas preparations. For each preparation, a ratio of insulin secretion was calculated from the area under the insulin secretion curve of the first pulse of 16.7 mM glucose divided by the area under the curve of the second pulse of 16.7 mM glucose containing compound.

[3] = Antiobesity effects in obese Zucker rats; format: in vivo, genetically obese male Zucker rats; details: 58 mg/kg, 14 days
Description: ANTIOBESITY EFFECTS IN OBESE ZUCKER RATS
Genetically Obese Male Zucker rats were kept in temperature (22° C.) and light (12 hours light-dark cycle) regulated rooms. One week prior to the start of the experiment, the rats were transferred to individual wirebottomed cages and trained to eat a powdered chow diet (Ralston Purina Co., St. Louis, Mo.) ad libitum.
At the beginning of the experiment, the control group contributed to eat the chow diet and the experimental animals were given a chow diet containing drug. The amount of drug administered was calculated from the food intake per kg body weight for each experimental group. The age of the rats at the start of the drug treatment was two to three months. The period of treatment was 28 to 64 days. Food intake and body weights were recorded periodically (once each day to twice a week) throughout the duration of the study. Plasma samples for insulin and glucose determinations were taken from clipped tails. Carcass composition was determined at the end of the treatment period and, or comparative purposes, prior to the start of treatment.

| Structure (SMILES) | response vs control in vivo at 100 mg/kg [1] [%] | Perfused Pancreas Inhibition Index ([2]; 100 μM) | other results |
| --- | --- | --- | --- |
| C(=C(c1ccccc1)c1ccccc1)C1CCN(CCCCCCCc2cccnc2)CC1 [Example 24, 3-[7-[4-(2,2-Diphenylethenyl)-1-piperidinyl]heptyl]pyridine (1:1)-(E)-2-butenedioate salt hemihydrate] | 118 |  | Perfused Pancreas Inhibition Index ([2]; 50 μM): 35 |
| C(=C(c1ccccc1)c1ccccc1)C1CCN(CCCCc2cncnc2)CC1 [Example 28, 5-[4-[4-(2,2-diphenylethenyl)-1-piperidinyl]butyl]pyrimidine (1:1)-(E)-2-butenedioate salt] | 147 | 3.0 |  |
| Fc1ccc(C(=CC2CCN(CCCCc3cccnc3)CC2)c2ccc(F)cc2)cc1 [Example 18, 3-[4-[4-[2,2-bis(4-fluorophenyl)ethenyl]-1-piperidinyl]butyl]pyridine (1:1)-(E)-2-butenedioate salt] | 113 | 0.6 |  |
| O=C(CCCc1cccnc1)N1CCC(C(c2ccccc2)c2ccccc2)CC1 [Example 10, 4-diphenylmethyl-1-[1-oxo-4-(3-pyridinyl)butyl]piperidine, 0.1 molar ethylacetate solvate] | 105 | 6.0 |  |
| C(=C(c1ccccc1)c1ccccc1)C1CCN(CCCCCCc2cncnc2)CC1 [Example 29, 5-[6-[4-(2,2-Diphenylethenyl)-1-piperidinyl]hexyl]pyrimidine] | 104 | 10.4 |  |
| c1ccc(C(CC2CCN(CCCCc3cccnc3)CC2)c2ccccc2)cc1 [Example 20, 3-[4-[4-(2,2-Diphenylethyl)-1-piperidinyl]butyl]pyridine] | 106 | 19.1 |  |
| O=C(CCCCCn1ccnc1)N1CCC(C=C(c2ccccc2)c2ccccc2)CC1 [Example 33, 4-(2,2-Diphenylethenyl)-1-[1-oxo-6-(1H-imidazo-1-yl)hexyl]piperidine] | 120 |  | Perfused Pancreas Inhibition Index ([2]; 50 μM): 2.5 |
| C(=C(c1ccccc1)c1ccccc1)C1CCN(CCCCCc2cccnc2)CC1 [Example 19, 3-[5-[4-(2,2-Diphenylethenyl)-1-piperidinyl]pentyl]pyridine (1:1)-(E)-2-butenedioate salt] | 97 | 24.1 |  |
| O=C(CCCc1cccnc1)N1CCC(C=C(c2ccccc2)c2ccccc2)CC1 [Example 11, 4-(2,2-diphenylethenyl)-1-[1-oxo-4-(3-pyridinyl)butyl]piperidine] | 99 |  | Perfused Pancreas Inhibition Index ([2]; 50 μM): 7.6 |
| Fc1ccc(C(CC2CCN(CCCCc3cccnc3)CC2)c2ccc(F)cc2)cc1 [Example 21, 3-[4-[4-[2,2-Bis(4-fluorophenyl)ethyl]-1-piperidinyl]butyl]pyridine (1:1)-(E)-2-butenedioate salt] | 136 | 16.3 |  |
| c1ccc(C(CC2CCN(CCCCCCCCc3cccnc3)CC2)c2ccccc2)cc1 [Example 27, 3-[8-[4-(2,2-Diphenylethyl)-1-piperidinyl]octyl]pyridine] |  |  | Relative Body Weight Gain Index ([3]; gain / days / dose (g/kg)): 94; Body Weight Gain (treated minus control) ([3]; marked *): -76 g; Food Intake ([3]; marked *): 70 % of control |
| c1ccc(C(c2ccccc2)C2CCN(CCCCc3cccnc3)CC2)cc1 [Example 16, 3-[4-[4-(Diphenylmethyl)-1-piperidinyl]butyl]pyridine (1:1)-(Z)-2-butenedioate salt] | 120 | 5.3 |  |
| C(=C(c1ccccc1)c1ccccc1)C1CCN(CCCc2cccnc2)CC1 [Example 22, 3-[3-[4-(2,2-Diphenylethenyl)-1-piperidinyl]propyl]pyridine (1:1)-(E)-2-butenedioate salt] | 101 | 10.1 |  |
| O=C(CCCc1cccnc1)N1CCC(CC(c2ccccc2)c2ccccc2)CC1 [Example 14, 4-(2,2-diphenylethyl)-1-[1-oxo-4-(3-pyridinyl)butyl]piperidine] | 109 | 14.1 |  |
